# Target: T1, human V1A receptor (Homo sapiens, UniProt P37288)
# T1 construct: expressed in transfected cells
# Assay: V1A filter binding assay ([3H]-AVP binding to CHO-hV1A membranes)
# Conditions: screen 1.0, [3H]-AVP displacement
# Procedure: 1.0 V1A Filter Binding Assay
# Receptor binding assays were performed on cellular membranes prepared from CHO cells stably expressing the human V1A receptor, (CHO-hV1A). The CHO-hV1A cell line was kindly provided under a licensing agreement by Marc Thibonnier, Dept. of Medicine, Case Western Reserve University School of Medicine, Cleveland, Ohio. CHO-hV1A cells were routinely maintained at 37° C. in humidified atmosphere with 5% CO2 in DMEM/Hams F12 nutrient mix supplemented with 10% fetal bovine serum, 2 mM L-glutamine, 15 mM HEPES and 400 μg/ml G418. For bulk production of cell pellets, adherent CHO-hV1A cells were grown to confluency of 90-100% in 850 cm^2 roller bottles containing a medium of DMEM/Hams F12 Nutrient Mix supplemented with 10% fetal bovine serum, 2 mM L-glutamine and 15 mM HEPES. Confluent CHO-hV1A cells were washed with phosphate-buffered saline (PBS), harvested into ice cold PBS and centrifuged at 1,000 rpm. Cell pellets were stored at −80° C. until use. Cell pellets were thawed on ice and homogenised in membrane preparation buffer consisting of 50 mM Tris-HCl, pH 7.4, 5 mM MgCl2 and supplemented with a protease inhibitor cocktail, (Roche). The cell homogenate was centrifuged at 1000 rpm, 10 min, 4° C. and the supernatant was removed and stored on ice. The remaining pellet was homogenised and centrifuged as before. The supernatants were pooled and centrifuged at 25,000×g for 30 min at 4° C. The pellet was resuspended in freezing buffer consisting of 50 mM Tris-HCl, pH 7.4, 5 mM MgCl2 and 20% glycerol and stored in small aliquots at −80° C. until use. Protein concentration was determined using Bradford reagent and BSA as a standard.
# Protein linearity followed by saturation binding studies were performed on each new batch of membrane. Membrane concentration was chosen that gave specific binding on the linear portion of the curve. Saturation binding studies were then performed using various concentrations of [^3H]-arginine vasopressin, [^3H]-AVP (0.05 nM-100 nM) and the Kd and Bmax determined.
# Compounds were tested for their effects on [^3H]-AVP binding to CHO-hV1A membranes, (^3H-AVP; specific activity 65.5 Ci/mmol; NEN Life Sciences). Compounds were solubilised in dimethylsulfoxide (DMSO) and diluted to working concentration of 10% DMSO with assay buffer containing 50 mM Tris-HCL pH 7.4, 5 mM MgCl2 and 0.05% BSA. […] The binding reaction was initiated by the addition of 200 μl membrane and the plates were gently shaken for 60 min at room temperature. The reaction was terminated by rapid filtration using a Filtermate Cell Harvester (Packard Instruments) through a 96-well GF/B UniFilter Plate which had been presoaked in 0.5% polyethyleneimine to prevent peptide sticking. The filters were washed three times with 1 ml ice cold wash buffer containing 50 mM Tris-HCL pH 7.4 and 5 mM MgCl2. The plates were dried and 50 μl Microscint-0 (Packard instruments) was added to each well. The plates were sealed and counted on a TopCount Microplate Scintillation Counter (Packard Instruments). Non-specific binding (NSB) was determined using 1 μM unlabelled d(CH2)5Tyr(Me)AVP ([β-mercapto-β,β-cyclopentamethylenepropionyl,0-Me-Tyr^2,Arg^8]-vasopressin) (βMCPVP), (Sigma). The radioligand binding data was analysed using a four parameter logistic equation with the min forced to 0%. The slope was free fitted and fell between −0.75 and −1.25 for valid curves. Specific binding was calculated by subtracting the mean NSB cpm from the mean Total cpm. For test compounds the amount of ligand bound to the receptor was expressed as % bound=(sample cpm−mean NSB cpm)/specific binding cpm×100. The % bound was plotted against the concentration of test compound and a sigmoidal curve was fitted. The inhibitory dissociation constant (Ki) was calculated using the Cheng-Prusoff equation: Ki=IC50/(1+[L]/Kd) where [L] is the concentration of ligand present in the well and Kd is the dissociation constant of the radioligand obtained from Scatchard plot analysis. […]
# T1 sequence (P37288 whole entry): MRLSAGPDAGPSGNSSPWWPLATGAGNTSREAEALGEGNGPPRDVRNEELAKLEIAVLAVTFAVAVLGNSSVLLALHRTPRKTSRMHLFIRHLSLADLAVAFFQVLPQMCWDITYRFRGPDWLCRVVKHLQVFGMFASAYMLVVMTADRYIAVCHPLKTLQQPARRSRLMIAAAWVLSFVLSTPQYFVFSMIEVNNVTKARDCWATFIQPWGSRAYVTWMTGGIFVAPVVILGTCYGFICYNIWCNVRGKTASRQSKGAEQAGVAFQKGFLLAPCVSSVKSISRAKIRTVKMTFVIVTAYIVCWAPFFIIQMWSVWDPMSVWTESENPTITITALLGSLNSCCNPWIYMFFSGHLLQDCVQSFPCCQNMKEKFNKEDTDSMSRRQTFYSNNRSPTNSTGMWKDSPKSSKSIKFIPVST
row,SMILES,Ki [nM]
1,"CN1Cc2cc(Cl)ccc2-n2c(nnc2C2CCN(C(=O)c3c[nH]c4ccccc34)CC2)C1 [Example 1, [4-(8-Chloro-5-methyl-5,6-dihydro-4H-2,3,5,10b-tetraaza-benzo[e]azulen-1-yl)-piperidin-1-yl]-(1H-indol-3-yl)-methanone]",73.8
2,"Cc1ccccc1CC(=O)N1CCC(c2nnc3n2-c2ccc(Cl)cc2CN(C)C3)CC1 [Example 2, 1-[4-(8-Chloro-5-methyl-5,6-dihydro-4H-2,3,5,10b-tetraaza-benzo[e]azulen-1-yl)-piperidin-1-yl]-2-o-tolyl-ethanone]",35
3,"CN1Cc2cc(Cl)ccc2-n2c(nnc2C2CCN(C(=O)C3(C)CCCCC3)CC2)C1 [Example 9, [4-(8-Chloro-5-methyl-5,6-dihydro-4H-2,3,5,10b-tetraaza-benzo[e]azulen-1-yl)-piperidin-1-yl]-(1-methyl-cyclohexyl)-methanone]",59.9
4,"CN1Cc2cc(Cl)ccc2-n2c(nnc2C2CCN(C(=O)CC3CC3)CC2)C1 [Example 18, 1-[4-(8-Chloro-5-methyl-5,6-dihydro-4H-2,3,5,10b-tetraaza-benzo[e]azulen-1-yl)-piperidin-1-yl]-2-cyclopropyl-ethanone]",62.1
5,"CN1Cc2cc(Cl)ccc2-n2c(nnc2C2CCN(C(=O)c3cc4ccccc4[nH]3)CC2)C1 [Example 64, [4-(8-Chloro-5-methyl-5,6-dihydro-4H-2,3,5,10b-tetraaza-benzo[e]azulen-1-yl)-piperidin-1-yl]-(1H-indol-2-yl)-methanone]",34.7
6,"CN1Cc2cc(Cl)ccc2-n2c(nnc2C2CCN(C(=O)c3ccc4cc[nH]c4c3)CC2)C1 [Example 67, [4-(8-Chloro-5-methyl-5,6-dihydro-4H-2,3,5,10b-tetraaza-benzo[e]azulen-1-yl)-piperidin-1-yl]-(1H-indol-6-yl)-methanone]",15.9

# Source: patent publication US20070167430A1, “Compounds useful in therapy” (priority 2004, published 2007)
